Data on 24 molecules can be found in patent publication US20220089578A1, “COMPOUNDS AS GLP-1R AGONISTS” (Terns Pharmaceuticals, Inc., priority 2020, published 2022).

Bounds are passed on as bounds.

Sequence of human GLP-1R (P43220 24-463): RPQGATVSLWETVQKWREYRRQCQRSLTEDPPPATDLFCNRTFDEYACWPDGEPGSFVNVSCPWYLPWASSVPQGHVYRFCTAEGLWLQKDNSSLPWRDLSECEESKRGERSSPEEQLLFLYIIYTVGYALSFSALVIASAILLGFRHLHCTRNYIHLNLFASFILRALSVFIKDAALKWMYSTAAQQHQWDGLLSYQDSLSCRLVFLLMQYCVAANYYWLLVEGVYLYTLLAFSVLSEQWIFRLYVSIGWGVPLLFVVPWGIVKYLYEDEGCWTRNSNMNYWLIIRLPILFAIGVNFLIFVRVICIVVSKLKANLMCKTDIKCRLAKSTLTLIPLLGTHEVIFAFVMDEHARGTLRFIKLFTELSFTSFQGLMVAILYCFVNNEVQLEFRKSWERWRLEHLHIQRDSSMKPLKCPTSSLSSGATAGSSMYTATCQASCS

The first experiment has as its target human GLP-1R (Homo sapiens, UniProt P43220). Kind of experiment: GLP-1R Cell Assay 1: cAMP Hunter CHO-K1 GLP1R Gs cell line, HitHunter cAMP assay. The class given is cell-based. As to conditions: Table 2; cAMP Hunter CHO-K1 GLP1R Gs cells; percent activity normalized to Exendin-4. On the procedure:
GLP-1R mediated agonist activity was determined using the cAMP Hunter CHO-K1 GLP1R Gs cell line (DiscoverX, cat# 95-0062C2), a stable CHO-K1 derived cell lines overexpressing naturally Gs coupled wild-type human GLP-1R (accession number: NM_002062.3). GLP-1R agonism in this cell line was detected by measuring cellular cAMP levels using the HitHunter cAMP assay kit (cat# 90-0075SM2), a homogenous, gain-of-signal competitive immune assay based on Enzyme Fragment Complementation (EFC) technology. In this system cellular cAMP competes with exogenous labeled cAMP (ED-cAMP) for binding to an anti-cAMP antibody. […] The luminescent signal is directly proportional to the amount of cellular cAMP.
For compound testing, cells were seeded in a total volume of 20 μL in white walled, 384-well microplates and incubated at 37° C. prior to compound testing. Prior to compound addition, cell culture media was removed by aspiration and replaced with 15 pt reagent buffer (2:1 HBSS/10 mM HEPES: cAMP XS+Ab reagent). Compounds were dissolved in DSMO and serially diluted (3-fold) prior to final dilution to 4X in assay buffer. Samples (5 μL) were added to cells and incubated at 37° C. for […] prior to 1 hour incubation with 20 pt cAMP XS+ED/CL lysis reagent and 3 hour incubation with 20 μL cAMP XS+EA reagent at room temperature. Microplates were read on a PerkinElmer Envision instrument. Compound activity was analyzed using CBIS data analysis suite (ChemInnovation). Percent activity was calculated based on duplicate assay runs and normalized to the positive control Exendin-4, a GLP-1R peptide agonist, using the following formula: […]
The effective compound concentration resulting in 50% response (EC50) was determined by non-linear regression analysis of dose-response curves.
The molecule `O=C(O)c1ccc2nc(CN3CCN(c4cccc(OCc5nc6cc(F)ccc6s5)n4)CC3)n(C[C@@H]3CCO3)c2c1` [Compound 119, (S)-2-((4-(6-((5-fluorobenzo[d]thiazol-2-yl)methoxy)pyridin-2-yl)piperazin-1-yl)methyl)-1-(oxetan-2-ylmethyl)-1H-benzo[d]imidazole-6-carboxylic acid] showed a concentration for a half-maximal effect (EC50) of 0.552 nM.
As to `N#Cc1ccc(COc2cccc(C3CCN([C@@H]4CCn5c4nc4ccc(C(=O)O)cc45)CC3)n2)c(F)c1` (single isomer, unassigned) [Compound 6-P1], the EC50 was determined as 248 nM.
In turn, `O=C(O)c1ccc2nc(CN3CC(=O)N(c4cccc(OCc5ccccc5)n4)CC3=O)n(C[C@@H]3CCO3)c2c1` [Compound 17, (S)-2-((4-(6-(benzyloxy)pyridin-2-yl)-2,5-dioxopiperazin-1-yl)methyl)-1-(oxetan-2-ylmethyl)-1H-benzo[d]imidazole-6-carboxylic acid] returned a concentration giving a half-maximal response (EC50) of 23 nM.
The molecule `N#CC1(COc2cccc(N3CCN(Cc4nc5ccc(C(=O)O)cc5n4C[C@@H]4CCO4)CC3)n2)CCOCC1` [Compound 41, (S)-2-((4-(6-((4-cyanotetrahydro-2H-pyran-4-yl)methoxy)pyridin-2-yl)piperazin-1-yl)methyl)-1-(oxetan-2-ylmethyl)-1H-benzo[d]imidazole-6-carboxylic acid] gave an EC50 above 500 nM.
Molecule `O=C(O)c1ccc2nc(CN3CCC(n4ccc(OCc5nc6ccccc6s5)n4)CC3)n(C[C@@H]3CCO3)c2c1` [Compound 101, (S)-2-((4-(3-(benzo[d]thiazol-2-ylmethoxy)-1H-pyrazol-1-yl)piperidin-1-yl)methyl)-1-(oxetan-2-ylmethyl)-1H-benzo[d]imidazole-6-carboxylic acid] gave a concentration for a half-maximal effect (EC50) of 28.7 nM.
As for `N#Cc1ccc(COc2cccc(C3CCN([C@H]4CCCn5c4nc4ccc(C(=O)O)cc45)CC3)n2)c(F)c1` [Compound 89, (S)-4-(4-(6-((4-cyano-2-fluorobenzyl)oxy)pyridin-2-yl)piperidin-1-yl)-1,2,3,4-tetrahydrobenzo[4,5]imidazo[1,2-a]pyridine-8-carboxylic acid], the 50% effective concentration (EC50) turned out to be 76.2 nM.
The molecule `CC1Cc2cc(C#N)cc(F)c2CN1c1cccc(N2CCN(Cc3nc4ccc(C(=O)O)cc4n3C[C@@H]3CCO3)CC2)n1` (stereo partly drawn) [Compound 133, 2-((4-(6-(6-cyano-8-fluoro-3-methyl-3,4-dihydroisoquinolin-2(1H)-yl)pyridin-2-yl)piperazin-1-yl)methyl)-1-(((S)-oxetan-2-yl)methyl)-1H-benzo[d]imidazole-6-carboxylic acid] registered an EC50 of 10.6 nM.
As for `O=C(O)c1ccc2nc(CN3CC[C@@]4(c5cccc(OCc6nc7ccccc7s6)n5)C[C@H]4C3)n(C[C@@H]3CCO3)c2c1` (single isomer, unassigned) [Compound 104-P1], a half-maximal effect (EC50) was put at 4.91 nM.
For the molecule `N#Cc1ccc(COc2cccc(N3CCN(Cc4nc5ccc(C(=O)O)cc5n4C[C@@H]4CCS4(=O)=O)CC3)n2)c(F)c1` (single isomer, unassigned) [Compound 140-P1], the EC50 came to 0.571 nM.
In turn, `N#Cc1ccc(Cn2ccc3ccc(N4CCN(Cc5nc6ccc(C(=O)O)cc6n5C[C@@H]5CCO5)CC4)nc32)c(F)c1` [Compound 29, (S)-2-((4-(1-(4-cyano-2-fluorobenzyl)-1H-pyrrolo[2,3-b]pyridin-6-yl)piperazin-1-yl)methyl)-1-(oxetan-2-ylmethyl)-1H-benzo[d]imidazole-6-carboxylic acid] gave an EC50 of 16.1 nM.
In turn, `O=C(O)c1ccc2nc(CN3CCN(c4cccc(OCCC5COC5)n4)CC3)n(C[C@@H]3CCO3)c2c1` [Compound 35, (S)-1-(oxetan-2-ylmethyl)-2-((4-(6-(2-(oxetan-3-yl)ethoxy)pyridin-2-yl)piperazin-1-yl)methyl)-1H-benzo[d]imidazole-6-carboxylic acid] showed an EC50 above 500 nM.
`O=C(O)c1ccc2nc(CN3CCN(c4cccc(OCc5cc6ccccc6cn5)n4)CC3)n(C[C@@H]3CCO3)c2c1` [Compound 85, (S)-2-((4-(6-(isoquinolin-3-ylmethoxy)pyridin-2-yl)piperazin-1-yl)methyl)-1-(oxetan-2-ylmethyl)-1H-benzo[d]imidazole-6-carboxylic acid] gave an EC50 of 6.11 nM.
With `N#Cc1cc(F)c2c(c1)CCC(c1cccc(N3CCN(Cc4nc5ccc(C(=O)O)cc5n4C[C@@H]4CCO4)CC3)n1)C2` (stereo partly drawn) [Compound 4, 2-((4-(6-(6-cyano-8-fluoro-1,2,3,4-tetrahydronaphthalen-2-yl)pyridin-2-yl)piperazin-1-yl)methyl)-1-((S)-oxetan-2-ylmethyl)-1H-benzo[d]imidazole-6-carboxylic acid], a half-maximal effect (EC50) was put at 4.58 nM.
Same read-out and setting: the figure for `O=C(O)c1ccc2nc(CN3CCN(c4cccc(OCC5CCCCC5)n4)CC3)n(C[C@@H]3CCO3)c2c1` [Compound 1, (S)-2-((4-(6-(cyclohexylmethoxy)pyridin-2-yl)piperazin-1-yl)methyl)-1-(oxetan-2-ylmethyl)-1H-benzo[d]imidazole-6-carboxylic acid] is 42.5 nM.
In turn, `Cn1cc(COc2cccc(N3CCN(Cc4nc5ccc(C(=O)O)cc5n4C[C@@H]4CCO4)CC3)n2)cn1` [Compound 86, (S)-2-((4-(6-((1-methyl-1H-pyrazol-4-yl)methoxy)pyridin-2-yl)piperazin-1-yl)methyl)-1-(oxetan-2-ylmethyl)-1H-benzo[d]imidazole-6-carboxylic acid] registered an EC50 of 75.3 nM.
As for `O=C(O)c1ccc2nc(CN3CCN(c4cccc(OCc5cc6ccccc6s5)n4)CC3)n(C[C@@H]3CCO3)c2c1` [Compound 65, (S)-2-((4-(6-(benzo[b]thiophen-2-ylmethoxy)pyridin-2-yl)piperazin-1-yl)methyl)-1-(oxetan-2-ylmethyl)-1H-benzo[d]imidazole-6-carboxylic acid], a half-maximal response (EC50) required 0.998 nM.
The molecule `N#Cc1ccc(COc2cccc([C@]34CCN(Cc5nc6ccc(C(=O)O)cc6n5C[C@@H]5CCO5)C[C@H]3C4)n2)c(F)c1` [Compound 9-P2, 2-(((1S,6R)-6-(6-((4-cyano-2-fluorobenzyl)oxy)pyridin-2-yl)-3-azabicyclo[4.1.0]heptan-3-yl)methyl)-1-((S)-oxetan-2-ylmethyl)-1H-benzo[d]imidazole-6-carboxylic acid] returned an EC50 of 0.494 nM.
In turn, `O=C(O)c1ccc2nc(CN3CCN(c4cccc(OCc5ccc6ccccc6n5)n4)CC3)n(C[C@@H]3CCO3)c2c1` [Compound 82, (S)-1-(oxetan-2-ylmethyl)-2-((4-(6-(quinolin-2-ylmethoxy)pyridin-2-yl)piperazin-1-yl)methyl)-1H-benzo[d]imidazole-6-carboxylic acid] gave a concentration for a half-maximal effect (EC50) of 2.78 nM.
In turn, `N#Cc1ccc2c(c1)CN(c1cccc(N3CCN(Cc4nc5ccc(C(=O)O)cc5n4C[C@@H]4CCO4)CC3)n1)CCC2` [Compound 66, (S)-2-((4-(6-(8-cyano-1,3,4,5-tetrahydro-2H-benzo[c]azepin-2-yl)pyridin-2-yl)piperazin-1-yl)methyl)-1-(oxetan-2-ylmethyl)-1H-benzo[d]imidazole-6-carboxylic acid] showed a concentration for a half-maximal effect (EC50) of 135 nM.
Molecule `N#Cc1ccc(COc2nn(C3CCN(Cc4nc5ccc(C(=O)O)cc5n4C[C@@H]4CCO4)CC3)cc2C2CC2)c(F)c1` [Compound 132, (S)-2-((4-(3-((4-cyano-2-fluorobenzyl)oxy)-4-cyclopropyl-1H-pyrazol-1-yl)piperidin-1-yl)methyl)-1-(oxetan-2-ylmethyl)-1H-benzo[d]imidazole-6-carboxylic acid] gave an EC50 of 34 nM.

The same experiment, now with this note: Table 3; cAMP Hunter CHO-K1 GLP1R Gs cells; percent activity normalized to Exendin-4.
`CCn1cncc1Cn1c(CN2CC[C@]3(c4cccc(N5CCc6cc(C#N)cc(F)c6C5)n4)C[C@@H]3C2)nc2ccc(C(=O)O)cc21` [Compound 184-P2, 2-(((1S,6R)-6-(6-(6-cyano-8-fluoro-3,4-dihydroisoquinolin-2(1H)-yl)pyridin-2-yl)-3-azabicyclo[3.1.0]heptan-3-yl)methyl)-1-((1-ethyl-1H-imidazol-5-yl)methyl)-1H-benzo[d]imidazole-6-carboxylic acid] came in with a concentration giving a half-maximal response (EC50) of 0.414 nM.
On the same count and under the same terms, next, `N#Cc1ccc2c(c1)CCC[C@@H]2Oc1cccc(C2CCN(Cc3nc4ccc(C(=O)O)cc4n3C[C@@H]3CCO3)CC2)n1` (single isomer, unassigned) [Compound 146-P2]: 7.02 nM; `N#Cc1ccc(CN2CCCc3ccc(C4CCN(Cc5nc6ccc(C(=O)O)cc6n5C[C@@H]5CCO5)CC4)nc32)c(F)c1` [Compound 143, (S)-2-((4-(8-(4-cyano-2-fluorobenzyl)-5,6,7,8-tetrahydro-1,8-naphthyridin-2-yl)piperidin-1-yl)methyl)-1-(oxetan-2-ylmethyl)-1H-benzo[d]imidazole-6-carboxylic acid]: above 500 nM.
Molecule `O=C(O)c1ccc2nc(CN3CCN(c4ccc5c(n4)OC(c4ccccc4)CC5)CC3)n(C[C@@H]3CCO3)c2c1` (stereo partly drawn) [Compound 162, 1-(((S)-oxetan-2-yl)methyl)-2-((4-(2-phenyl-3,4-dihydro-2H-pyrano[2,3-b]pyridin-7-yl)piperazin-1-yl)methyl)-1H-benzo[d]imidazole-6-carboxylic acid] returned an EC50 above 500 nM.
